Measured values as given in patent publication US5643912A, “Pyrazinoic acid esters as anti-mycobacterium avium agents” (The Research Foundation of State University of NY, priority 1996, dated 1997).
In brackets after ≈: the same amount, converted by molar mass.

What was measured:
[1] = tested on: M. avium 101; assay: Broth dilution MIC vs M. avium 101; assay type: cell-based; details: Mycobacterium avium, 7H10 broth, pH 5.8
[2] = tested on: M. kansasii SWK; assay: Broth dilution MIC vs M. kansasii SWK; assay type: cell-based; details: Mycobacterium kansasii, 7H10 broth, pH 5.8
[3] = tested on: M. tuberculosis 102; assay: Broth dilution MIC vs M. tuberculosis 102; assay type: cell-based; details: Mycobacterium tuberculosis, 102, pH 5.8, M. tuberculosis 102, 7H10 broth, read-out: MIC
[4] = tested on: M. tuberculosis BUR; assay: Broth dilution MIC vs M. tuberculosis BUR; assay type: cell-based; details: Mycobacterium tuberculosis, M. tuberculosis BUR (footnote b), 7H10 broth, pH 5.8
[5] = tested on: Myobacterium tuberculosis H37RV; details: cited from earlier work
[6] = tested on: Mycobacterium (M.) tuberculosis; details: in words; cited from earlier work
[7] = tested on: M. bovis or other mycobacteria; details: in words; cited from earlier work
[8] = tested on: M. avium; details: Heifets et al. 1986; cited from earlier work
[9] = in words; cited from earlier work
[10] = tested on: a number of bacteria including M. tuberculosis; details: Suzuki et al. 1958; cited from earlier work

**Q.** What does the source list for `C=CCOC(=O)c1cnc(Cl)cn1` [Example 33]?
**A.** MIC [1]: 64 µg/mL (≈ 322 µM); MIC [2]: < 1 µg/mL; MIC [3]: 1 µg/mL (≈ 5.04 µM)

**Q.** Which results are given for `CC(C)COC(=O)c1cnc(Cl)cn1` [Example 34]?
**A.** MIC [1]: 64 µg/mL (≈ 298 µM); MIC [2]: < 1 µg/mL; MIC [3]: 2 µg/mL (≈ 9.32 µM)

**Q.** With `CC(C)(C)OC(=O)c1cnc(Cl)cn1` [Example 35] as the compound, how does the MIC [1] read?
**A.** The MIC was 128 µg/mL (≈ 596 µM).

**Q.** And the MIC [2]?
**A.** The MIC was < 1 µg/mL.

**Q.** And the MIC [3]?
**A.** Its MIC is 2 µg/mL (≈ 9.32 µM).

**Q.** With `CCCCCCCCCC(C)OC(=O)c1cnc(Cl)cn1` (centres unmarked) [Example 36] as the compound, how does the MIC [1] read?
**A.** The MIC was 16 µg/mL (≈ 51.1 µM).

**Q.** And the MIC [2]?
**A.** Its MIC is 0.25 µg/mL (≈ 0.799 µM).

**Q.** And the MIC [3]?
**A.** Its MIC is 0.25 µg/mL (≈ 0.799 µM).

**Q.** Which MIC [1] does the source give for `CCCCCCCC(C)(CCCC)OC(=O)c1cnc(Cl)cn1` (centres unmarked) [Example 37] here?
**A.** The MIC was > 64 µg/mL.

**Q.** And the MIC [2]?
**A.** The MIC was 16 µg/mL (≈ 46.9 µM).

**Q.** And the MIC [3]?
**A.** The MIC was 8 µg/mL (≈ 23.5 µM).

**Q.** For `CCCCCCCCC(C)(CCCC)OC(=O)c1cnc(Cl)cn1` (centres unmarked) [Example 38], which MIC [1] is on record?
**A.** The MIC was > 64 µg/mL.

**Q.** What about the MIC [2] of the same compound?
**A.** The MIC was > 16 µg/mL.

**Q.** What about the MIC [3] of the same compound?
**A.** Its MIC is 16 µg/mL (≈ 45.1 µM).

**Q.** Which results are given for `COC(=O)c1cnc(I)cn1` [Example 39]?
**A.** MIC [1]: 256 µg/mL (≈ 970 µM); MIC [2]: 8 µg/mL (≈ 30.3 µM); MIC [3]: 16 µg/mL (≈ 60.6 µM)

**Q.** Which MIC [1] does the source give for `CCCCCC(C)(CCCC)OC(=O)c1cnc(Cl)cn1` (centres unmarked) [Example 40] here?
**A.** Its MIC is > 256 µg/mL.

**Q.** And the MIC [2]?
**A.** The MIC was 16 µg/mL (≈ 51.1 µM).

**Q.** What about the MIC [3] of the same compound?
**A.** Its MIC is 4 µg/mL (≈ 12.8 µM).

**Q.** For `O=C(OCC(F)(F)F)c1cnccn1` [Example 41], which MIC [2] is on record?
**A.** Its MIC is 100 µg/mL (≈ 485 µM).

**Q.** What about the MIC [4] of the same compound?
**A.** The MIC was 25 µg/mL (≈ 121 µM).

**Q.** Which MIC [2] does the source give for `C=CCOC(=O)c1cnccn1` [Example 42] here?
**A.** The MIC was 3 µg/mL (≈ 18.3 µM).

**Q.** What about the MIC [4] of the same compound?
**A.** Its MIC is 6.3 µg/mL (≈ 38.4 µM).

**Q.** For `CCCOC(=O)c1cnccn1` [Example 43], which MIC [2] is on record?
**A.** Its MIC is 3 µg/mL (≈ 18.1 µM).

**Q.** And the MIC [4]?
**A.** Its MIC is 3 µg/mL (≈ 18.1 µM).

**Q.** Which MIC [1] does the source give for `CCCCCC(C)(CCC)OC(=O)c1cnc(Cl)cn1` (centres unmarked) [Example 44] here?
**A.** The MIC was > 256 µg/mL.

**Q.** And the MIC [2]?
**A.** Its MIC is 4 µg/mL (≈ 13.4 µM).

**Q.** What about the MIC [3] of the same compound?
**A.** Its MIC is 4 µg/mL (≈ 13.4 µM).

**Q.** Which MIC [1] does the source give for `CCCCCC(C)(CCCCC)OC(=O)c1cnc(Cl)cn1` [Example 45] here?
**A.** The MIC was > 64 µg/mL.

**Q.** What about the MIC [2] of the same compound?
**A.** Its MIC is 8 µg/mL (≈ 24.5 µM).

**Q.** And the MIC [3]?
**A.** The MIC was 8 µg/mL (≈ 24.5 µM).

**Q.** Which results are given for `CCCCCCC(C)(CCCCC)OC(=O)c1cnc(Cl)cn1` (centres unmarked) [Example 46]?
**A.** MIC [1]: > 64 µg/mL; MIC [2]: 8 µg/mL (≈ 23.5 µM); MIC [3]: 2 µg/mL (≈ 5.87 µM)

**Q.** Which results are given for `CCCCCCCC(C)(CCCCC)OC(=O)c1cnc(Cl)cn1` (centres unmarked) [Example 47]?
**A.** MIC [1]: > 64 µg/mL; MIC [3]: 2 µg/mL (≈ 5.64 µM)

**Q.** What does the source list for `CCCCCCCCCC(C)(CCCCCCC)OC(=O)c1cnc(Cl)cn1` (centres unmarked) [Example 48]?
**A.** MIC [1]: > 64 µg/mL; MIC [3]: 0.5 µg/mL (≈ 1.22 µM)

**Q.** Which results are given for `CC(C)COC(=O)c1cnccn1` [Example 49]?
**A.** MIC [1]: 256 µg/mL (≈ 1420 µM); MIC [2]: 16 µg/mL (≈ 88.8 µM); MIC [3]: 2 µg/mL (≈ 11.1 µM)

**Q.** With `CCC(C)OC(=O)c1cnccn1` (centres unmarked) [Example 50] as the compound, how does the MIC [1] read?
**A.** Its MIC is 256 µg/mL (≈ 1420 µM).

**Q.** And the MIC [2]?
**A.** The MIC was 16 µg/mL (≈ 88.8 µM).

**Q.** What about the MIC [3] of the same compound?
**A.** Its MIC is 8 µg/mL (≈ 44.4 µM).

**Q.** For `Cc1cc(C(C)(C)C)c(OC(=O)c2cnccn2)c(C(C)(C)C)c1` [Example 51], which MIC [1] is on record?
**A.** The MIC was > 256 µg/mL.

**Q.** What about the MIC [2] of the same compound?
**A.** The MIC was > 16 µg/mL.

**Q.** And the MIC [3]?
**A.** Its MIC is 128 µg/mL (≈ 392 µM).

**Q.** With `O=C(OCc1ccccc1)c1cnccn1` [Example 52] as the compound, how does the MIC [1] read?
**A.** Its MIC is 64 µg/mL (≈ 299 µM).

**Q.** What about the MIC [2] of the same compound?
**A.** Its MIC is 1 µg/mL (≈ 4.67 µM).

**Q.** What about the MIC [3] of the same compound?
**A.** Its MIC is 1 µg/mL (≈ 4.67 µM).

**Q.** For `C/C=C/COC(=O)c1cnccn1` [Example 54], which MIC [3] is on record?
**A.** Its MIC is 2 µg/mL (≈ 11.2 µM).

**Q.** Which results are given for `Cc1cc(C)c(OC(=O)c2cnccn2)c(C)c1` [Example 55]?
**A.** MIC [1]: 64 µg/mL (≈ 264 µM); MIC [2]: 2 µg/mL (≈ 8.25 µM); MIC [3]: 1 µg/mL (≈ 4.13 µM)

**Q.** With `CC1CCC(C(C)C)C(OC(=O)c2cnccn2)C1` (centres unmarked) [Example 56] as the compound, how does the MIC [3] read?
**A.** The MIC was 2 µg/mL (≈ 7.62 µM).

**Q.** For `O=C(OC(C(F)(F)F)C(F)(F)F)c1cnccn1` [Example 60], which MIC [4] is on record?
**A.** The MIC was 100 µg/mL (≈ 365 µM).

**Q.** Which MIC [2] does the source give for `O=C(OCCCl)c1cnccn1` [Example 62] here?
**A.** The MIC was 25 µg/mL (≈ 134 µM).

**Q.** And the MIC [4]?
**A.** Its MIC is 6.3 µg/mL (≈ 33.8 µM).

**Q.** For `O=C(Oc1ccc([N+](=O)[O-])cc1)c1cnccn1` [Example 63], which MIC [2] is on record?
**A.** Its MIC is 25 µg/mL (≈ 102 µM).

**Q.** And the MIC [4]?
**A.** The MIC was 12.5 µg/mL (≈ 51 µM).

**Q.** Which MIC [2] does the source give for `Cc1ccc(OC(=O)c2cnccn2)cc1` [Example 64] here?
**A.** Its MIC is 100 µg/mL (≈ 467 µM).

**Q.** And the MIC [3]?
**A.** The MIC was 100 µg/mL (≈ 467 µM).

**Q.** With `CC(C)(C)c1ccc(OC(=O)c2cnccn2)cc1` [Example 65] as the compound, how does the MIC [2] read?
**A.** The MIC was 25 µg/mL (≈ 97.5 µM).

**Q.** What about the MIC [3] of the same compound?
**A.** Its MIC is 25 µg/mL (≈ 97.5 µM).

**Q.** For `O=C(Oc1c(F)c(F)c(F)c(F)c1F)c1cnccn1` [Example 66], which MIC [2] is on record?
**A.** The MIC was 25 µg/mL (≈ 86.2 µM).

**Q.** Which MIC [2] does the source give for `O=C(Oc1ccc(-c2ccccc2)cc1)c1cnccn1` [Example 67] here?
**A.** Its MIC is 25 µg/mL (≈ 90.5 µM).

**Q.** Which “in vitro activity against M. tuberculosis H37RV” value [5] does the source give for `CN(C)CCOC(=O)c1cnccn1` [N,N-dimethyl-2-aminoethyl pyrazinoate] here?
**A.** The value was “active”.

**Q.** For `NC(=O)c1cnccn1` [pyrazinamide], which “activity against M. tuberculosis” value [6] is on record?
**A.** The value was “only active against Mycobacterium (M.) tuberculosis”.

**Q.** And the “activity against M. bovis or other mycobacteria” value [7]?
**A.** Its value is “not active”.

**Q.** What about the “activity against M. avium” value [8] of the same compound?
**A.** Its value is “inactive”.

**Q.** What about the hepatotoxicity [9] of the same compound?
**A.** Its hepatotoxicity is “hepatotoxicity”.

**Q.** With pyrazinoate ester of chloramphenicol as the compound, how does the “activity against bacteria including M. tuberculosis” value [10] read?
**A.** The value was “inactive”.
